What all share (assay type): functional, cell-based
The test system of one assay is P388. Briefly: Cytotoxicity against mouse P388 cells.
In a further assay the test system is A549. As to the kind of experiment: Cytotoxicity against human A549 cells.
A further assay relates to HT-29. As to the kind of experiment: Cytotoxicity against human HT-29 cells.
A further assay relates to SK-MEL-28. Briefly: Cytotoxicity against human SK-MEL-28 cells.

Values after ≈ are worked out from the molar mass of the structure shown.

The values that follow come from ChEMBL document CHEMBL1150809, “New acyclic sesquiterpenes and norsesquiterpenes from the Caribbean Gorgonian Plexaurella grisea” (J Nat Prod, 2001).

As usually defined, the IC50 is the midpoint of a concentration-inhibition curve. Higher therefore signals weaker potency in that assay. For the compound `CC(C)=C/C=C\C(C)/C=C/C=C(\C)C=O` (stereo not given), the IC50 with P388, in the assay on A549, in the assay with HT-29 and in the assay on SK-MEL-28 was greater than 10 µg/mL in each case.
Regarding `C=C/C(C)=C/C=C/C(C)CC(=O)CC(C)C` (stereo not given), the IC50 in the assay with P388 was found to be 2.5 µg/mL (≈ 11.3 µM); in the assay with A549, 5 µg/mL (≈ 22.7 µM); in the assay on HT-29 it was 5 µg/mL (≈ 22.7 µM); with SK-MEL-28, 5 µg/mL (≈ 22.7 µM).
In the case of `C=C/C(C)=C\C=C\C(C)CC(=O)CC(C)C` (stereo not given), the IC50 in the assay on P388, in the assay on A549, with HT-29 and in the assay with SK-MEL-28 was 2.5 µg/mL (≈ 11.3 µM) in each case.
Consider `CC(C)=CCCC(C)/C=C/C=C(\C)C=O` (stereo not given), for which the IC50 was found to be 0.5 µg/mL (≈ 2.42 µM) in the assay on P388, 2.5 µg/mL (≈ 12.1 µM) in the assay on A549, 2.5 µg/mL (≈ 12.1 µM) in the assay with HT-29 and 2.5 µg/mL (≈ 12.1 µM) in the assay with SK-MEL-28.
On to `C=C/C(C)=C/CC(OC(C)=O)C(=C)CCC=C(C)C` (stereo not given), for which the IC50 in the assay with P388 is 2.5 µg/mL (≈ 9.53 µM); with A549, 5 µg/mL (≈ 19.1 µM); with HT-29, 5 µg/mL (≈ 19.1 µM); with SK-MEL-28, 5 µg/mL (≈ 19.1 µM).
